From PMC9918429, “ATX-101, a cell-penetrating protein targeting PCNA, can be safely administered as intravenous infusion in patients and shows clinical activity in a Phase 1 study” (Oncogene, 2022)
“Also recorded” adds a separate entry of the source. Ends that are not written are not given here.

Legend:
[1] = test system: patients with advanced solid tumors; test: Phase 1 first-in-human study, weekly intravenous ATX-101 infusion: adverse events, DLT, infusion-related reactions (CTCAE v4.03); type: in vivo
Method: Here we report results of the ATX-101 first-in-human study in patients with advanced solid tumors. This open-label, single arm Phase 1 study, consisting of two sub-studies, investigated 4 doses of ATX-101 (20, 30, 45, and 60 mg/m^2) administered intravenously every week. In a first, dose-escalation study pre-defined dose-limiting toxicities and PK were assessed (for DLT definition see Supplementary Table 1). If, after 6 weeks, no tumor progression was measured, treatment could be continued in a second, long-term follow-up study until disease progression or unacceptable toxicity with the primary objective safety/tolerability. Efficacy was a secondary endpoint in both sub-studies. The studies were registered in the Australian New Zealand Clinical Trials Registry (ANZCTR) under the following IDs: 375262 and 375319. Details on methods are given in the Supplementary information.
This Phase 1, open-label, single arm, first-in-human study consisted of two sub-studies. Study ATX101-01 was a dose escalation study in accordance with the traditional 3+3 escalation design^1. Patients were treated over 6 weeks when the first tumor assessment was done. In case of disease stabilization or tumor response, patients could continue treatment in the long-term follow-up study ATX101-02. The data analysis has been combined for both studies.
ATX-101 was administered weekly as intravenous infusion.
Due to the occurrence of infusion related reactions (IRR) in the first patient, a premedication was implemented for subsequent patients. Premedication was optimized by the Safety Monitoring Committee (SMC) during the study resulting in the final recommendation to administer corticosteroids, paracetamol, H1 and H2 inhibitors. This medication became standard practice in Cohort 3. Montelukast (anti-leukotriene) was added in Cohort 4. In addition, on each infusion day, the infusion rate had to be increased in 5 steps from 5 mg/h to a maximum of 120 mg/h.
ATX-101 was administered in 4 dosing cohorts. The starting dose was 20 mg/m², escalated to 30 mg/m², 45 mg/m² and 60 mg/m². An SMC, comprising all principal investigators and medical monitors of sponsor and CRO, recommended dose changes and modifications after the end of each completed cohort and during the entire study.
Toxicities were graded as mild, moderate, severe, life threatening or related to death using the Common Terminology Criteria for Adverse Events (CTCAE) Version 4.03. Safety assessments included the incidence of dose limiting toxicities (DLTs), treatment-emergent adverse events (TEAE), laboratory parameters, ECG, performance status, physical examinations. DLT were defined upfront, the DLT period included the first three treatment weeks.

[2] = test system: advanced solid tumors; test: Tumor assessment by investigators according to RECIST V1.1; type: in vivo, human
Method: Tumors were assessed by investigators according to RECIST V1.1 at baseline, after 6 weeks and every 3 months thereafter. Efficacy Population: patients with at least one tumor assessment (RECIST) after treatment start

[3] = Full-length peptide in cell culture media after peptide addition; type: in vitro ADME; conditions: cell cultures, 1–2 h after the peptide addition; unpublished data
[4] = test system: cell cultures; conditions: cited from earlier work
[5] = Plasma pharmacokinetics of ATX-101 on first infusion day, non-compartmental (Phoenix WinNonlin); conditions: for tmax Median [Min;Max]: from infusion start
Method: Blood samples for a complete pharmacokinetic (PK) profile were collected on the first infusion day. On days 8, 15, and 36 samples were collected during the infusion only. Plasma trough levels were assessed on Days 3 and Day 43.
Primary PK Population: patients with at least 2 measurable plasma concentration time points after the end of infusion on D1

[6] = 30 mg/m^2 i.v. infusion, first infusion day, plasma, primary PK population, n = 1
[7] = 45 mg/m^2 i.v. infusion, first infusion day, plasma, primary PK population, mean (SD), n = 4
[8] = 60 mg/m^2 i.v. infusion, first infusion day, plasma, primary PK population, mean (SD), n = 6
[9] = 60 mg/m^2 i.v. infusion, first infusion day, plasma, primary PK population, mean (SD), n = 8

With “Ac-MDRWLVKWKKKRKIRRRRRRRRRRR (N-terminus assumed) [ATX-101]” the “TEAE: Upper respiratory tract infection” value ([1]; Overall (n=25), Any Grade) was 3 (12.0) n (%), the “TEAE: Abdominal pain upper” value ([1]; Overall (n=25), Grade 3) was 1 (4.0) n (%) and the “TEAE: Anemia” value ([1]; Overall (n=25), Grade 3) was 4 (16.0) n (%). The “TEAE: Fatigue” value ([1]; Overall (n=25), Grade 3) was 1 (4.0) n (%), the “TEAE: Hyperglycemia” value ([1]; Overall (n=25), Grade 3) was 2 (8.0) n (%) and the “TEAE: Patients with at least one event” value ([1]; Overall (n=25), Grade 3) was 15 (60.0) n (%). The “Patients with infusion-related reactions (mild and moderate)” value ([1]; all 25 patients, 20-60 mg/m^2 weekly, despite premedication and stepwise infusion rate) was 64%, the “TEAE of CTCAE grade 4/5” value ([1]; all cohorts (n=25)) was “CTCAEs grade 4/5 were not observed” and the Maximum tolerated dose ([1]; doses up to 60 mg/m^2 weekly) was “not reached”. The “Dose-limiting toxicities (DLT)” value ([1]; in vivo) was “not observed”, the “IRR Grade 1 (mild), number of patients with IRR” value ([1]; in vivo) was 9 (36.0) n (%) and the “IRR Grade 1 (mild), total number of IRRs” value ([1]; in vivo) was 17 N. For the same substance, the “IRR Grade 2 (moderate), number of patients with IRR” value ([1]; in vivo) was 13 (52.0) n (%), the “IRR Grade 2 (moderate), total number of IRRs” value ([1]; in vivo) was 45 N and the “IRR any grade, total number of IRRs” value ([1]; in vivo) was 62 N. The “IRR: Patients with at least one event, number of patients with IRR” value ([1]; in vivo) was 16 (64.0) n (%), the “Patients with IRR in whom IRR was seen on the first infusion day” value ([1]; in vivo) was 83% and the “TEAE: Abdominal pain upper” value ([1]; in vivo) was 3 (12.0) n (%). The “TEAE: Anemia” value ([1]; in vivo) was 8 (32.0) n (%), the “TEAE: Diarrhea” value ([1]; in vivo) was 7 (28.0) n (%) and the “TEAE: Dysgeusia” value ([1]; in vivo) was 3 (12.0) n (%). For the same substance, the “TEAE: Erythema” value ([1]; in vivo) was 3 (12.0) n (%), the “TEAE: Fatigue” value ([1]; in vivo) was 12 (48.0) n (%) and the “TEAE: Headache” value ([1]; in vivo) was 3 (12.0) n (%). For the same substance, the “TEAE: Hyperglycemia” value ([1]; in vivo) was 3 (12.0) n (%), the “TEAE: Infusion related reactions” value ([1]; in vivo) was 16 (64.0) n (%) and the “TEAE: Insomnia” value ([1]; in vivo) was 3 (12.0) n (%). For the same substance, the “TEAE: Nausea” value ([1]; in vivo) was 4 (16.0) n (%), the “TEAE: Patients with at least one event” value ([1]; in vivo) was 25 (100.0) n (%) and the “TEAE: Pyrexia” value ([1]; in vivo) was 4 (16.0) n (%). The “TEAE: Vascular access site bruising” value ([1]; in vivo) was 3 (12.0) n (%), the “Treatment-related TEAE: Anemia” value ([1]; in vivo) was 2 (8.0) n (%) and the “Treatment-related TEAE: Diarrhea” value ([1]; in vivo) was 4 (16.0) n (%). The “Treatment-related TEAE: Dysgeusia” value ([1]; in vivo) was 3 (12.0) n (%), the “Treatment-related TEAE: Erythema” value ([1]; in vivo) was 2 (8.0) n (%) and the “Treatment-related TEAE: Fatigue” value ([1]; in vivo) was 8 (32.0) n (%). For the same substance, the “Treatment-related TEAE: Flushing” value ([1]; in vivo) was 2 (8.0) n (%), the “Treatment-related TEAE: Hyperglycemia” value ([1]; in vivo) was 2 (8.0) n (%) and the “Treatment-related TEAE: Infusion-related reactions” value ([1]; in vivo) was 16 (64.0) n (%). For the same substance, the “Treatment-related TEAE: Patients with at least 1 event” value ([1]; in vivo) was 23 (92.0) n (%), the “Treatment-related adverse events of grade 3” value ([1]; in vivo) was “one grade 3 adverse event” and the “Vital signs, ECG, and laboratory values” ([1]; in vivo) was “didn’t show a trend of changes”. For the same substance, the “Recommended phase 2 dose (RP2D), monotherapy” value ([1]; in vivo, iv) was 60 mg/m^2, the “Median time to treatment discontinuation” value ([2]; 12 patients of long-term follow-up study, range [7–74]) was 18 weeks and the “Stable disease at the end of the dose escalation study” value ([2]; Efficacy Population (n = 20), after 6 weeks, RECIST V1.1) was 70%. The “Disease stabilization over at least 4.1 months” value (shortened to “Disease stabilization over”) ([2]; Efficacy Population, Cohort 1 (20 mg/m^2)) was 50%, the “Disease stabilization over” value ([2]; Efficacy Population, Cohort 2 (30 mg/m^2)) was 33.3% and the “Disease stabilization over” value ([2]; Efficacy Population, Cohort 3 (45 mg/m^2)) was 50%. For the same substance, the “Disease stabilization over” value ([2]; Efficacy Population, Cohort 4 (60 mg/m^2)) was 33.3%, the “Partial or complete tumor responses” value ([2]; Efficacy Population, RECIST V1.1) was “No tumor responses were observed; also recorded: No partial or complete responses were observed” and the “Stable disease at treatment discontinuation” value ([2]; long-term follow-up, 5 of 12 patients) was 41.7%. The “Progressive disease at treatment discontinuation” value ([2]; long-term follow-up, 7 of 12 patients) was 58.3%, the “Full-length peptide in the culture media” value [3] was “no full-length peptide was found” and the “Duration of activity (inhibition of growth, increased apoptosis) after addition of the peptide” value [4] was “up to five days”. For the same substance, the “tmax Median [Min;Max]” value ([5]; 20 mg/m^2 i.v. infusion, first infusion day, plasma, primary PK population, n = 1) was 2.02 [N/A] h, the “tmax Median [Min;Max]” value [5, 6] was 2.98 [N/A] h and the CL [5, 6] was 14,400 mL/h/m^2. For the same substance, the Vz [5, 6] was 7970 mL/m^2, the kel [5, 6] was 1.81 h⁻¹ and the “tmax Median [Min;Max]” value ([5]; 45 mg/m^2 i.v. infusion, first infusion day, plasma, primary PK population, median [min;max], n = 4) was 2.37 [1.32;2.82] h. For the same substance, the AUC0-t [5, 7] was 1980 (427) h × ng/mL, the AUC(0-inf) [5, 7] was 2200 (591) h × ng/mL and the CL [5, 7] was 21,500 (6120) mL/h/m^2. The Cmax [5, 7] was 1150 (166) ng/mL, the Vz [5, 7] was 13,100 (6830) mL/m^2 and the kel [5, 7] was 2.25 (1.57) /h. For the same substance, the “tmax Median [Min;Max]” value ([5]; 60 mg/m^2 i.v. infusion, first infusion day, plasma, primary PK population, median [min;max], n = 8) was 4.75 [1.60;9.12] h, the CL [5, 8] was 17,800 (5880) mL/h/m^2 and the MRT0-inf [5, 8] was 1.54 (0.66) h. For the same substance, the Vz [5, 8] was 12,900 (5520) mL/m^2, the kel [5, 8] was 1.51 (0.46) /h and the AUC0-t [5, 9] was 3320 (1260) h × ng/mL. The Cmax [5, 9] was 1320 (815) ng/mL, the “Elimination half-life in blood” value ([5]; all dose levels (20, 30, 45, 60 mg/m^2)) was “less than 30 min” and the AUC0-t ([5]; human, plasma, iv, 20 mg/m2) was 666 ng·h/mL. It also gave a Cmax ([5]; human, plasma, iv, 20 mg/m2) of 468 ng/mL, an AUC0-t ([5]; human, plasma, iv, 30 mg/m2) of 1900 ng·h/mL and an AUC(0-inf) ([5]; human, plasma, iv, 30 mg/m2) of 2080 ng·h/mL. The Cmax ([5]; human, plasma, iv, 30 mg/m2) was 720 ng/mL, the MRT ([5]; human, plasma, iv, 30 mg/m2) was 36.7 min and the MRT ([5]; human, plasma, iv, 45 mg/m2) was 53.3 min. For the same substance, the AUC(0-inf) ([5]; human, plasma, iv, 60 mg/m2) was 3700 ng·h/mL.
